Assay results taken from patent publication US20060281714A1, “Combinations of a cathepsin k inhibitor and a bisphosphonate in the treatment of bone metastasis, tumor growth and tumor-induced bone loss” (priority 2003, published 2006).

Test system: 4T1Luc2000 mouse mammary carcinoma cells
Assay: Osteolytic activity in the 4T1Luc2000 assay (intra-tibial injection of tumor cells)
Assay type: in vivo, Athymic Balb\c nude, female mice
Conditions: 50 mg/kg p.o. twice daily, in combination with Zoledronic Acid 100 ug/kg s.c. twice weekly; compared with Zoledronic Acid single treatment
Method: Intra-Tibial Injection of 4T1Luc2000 Mouse Mammary Carcinoma Cells:
Athymic Balb\c nude, female mice (Spezialzuchten, Stein, Switzerland) are anaesthetized by i.p. administration of […] ketarom: a mixture of 100 mg/kg Ketalar® 50 (Parker-Davis, Zurich, Switzerland) and 10 mg/kg xylazine (Rompun®, Bayer, Lyssach, Switzerland). Using a 30 gauze needle a cell suspension of […] in […] of HBSS (Invitrogen, Basel Switzerland) is injected through the articular cartilage and epiphysis into the tibia. In total, 48 animals in 6 groups, 8 animals each, are used in this study. […]
Peripheral Quantitative Computed Tomography (pQCT), End-Point Determination:
Total, cortical, and cancellous bone mass and geometry are monitored using an XCT-Research SA+ (Stratec-Norland, Pforzheim, Germany) fitted with a 0.5 mm collimator. […] Slices located 2, 3, 4, and 5 mm distal from the intercondylar tubercle in the proximal tibia metaphysis are analysed. […]
3D structural parameters of cancellous bone are measured non-invasively by microCT as described. […] A region of 200 slices at a position of 1 mm below the growth plate (secondary spongiosa) corresponding to the site of injection of the 4T1luc2000 cells is measured at a nominal resolution of approximately 15 μm (FIG. 3). […]
All results from the bone studies are expressed as mean *standard error (SEM). […]

## CCCN1CCC(c2ccc(C(=O)NC3(C(=O)NCC#N)CCCCC3)cc2)CC1 [N-[1-(Cyanomethyl-carbamoyl)-cyclohexyl]-4-(1-propyl-piperidin-4-yl)-benzamide]
  anti-osteolytic activity: additive anti-osteolytic activity which is superior to Zoledronic Acid single treatment
